Columns and labels:
[1] = target: T1, peroxisome proliferator-activated receptor γ (PPARγ) (Homo sapiens, UniProt P37231); test: in vitro CDK5/P35 kinase assay on PPARγ LBD (ADP-Glo, phospho-Ser-273 Western blot); histone H1 phosphorylation not inhibited; PPRE luciferase in HEK293T; assay type: biochemical
T1 construct: gene PPARG; recombinant PPARγ LBD

[2] = target: T1, peroxisome proliferator-activated receptor γ (PPARγ); test: in vitro CDK5/P35 kinase assay on PPARγ LBD (ADP-Glo, phospho-Ser-273 Western blot); histone H1 phosphorylation not inhibited; weak PPRE luciferase activation; assay type: biochemical

T1 sequence (P37231 231-505 limits assumed): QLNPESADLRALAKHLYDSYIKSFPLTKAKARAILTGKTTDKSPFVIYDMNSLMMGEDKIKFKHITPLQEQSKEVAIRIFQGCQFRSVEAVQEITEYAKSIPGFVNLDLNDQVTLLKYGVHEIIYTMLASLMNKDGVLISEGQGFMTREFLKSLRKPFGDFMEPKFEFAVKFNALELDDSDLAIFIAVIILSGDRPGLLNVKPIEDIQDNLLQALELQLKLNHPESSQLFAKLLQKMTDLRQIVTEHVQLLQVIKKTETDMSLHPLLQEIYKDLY
T1 sequence (Q00535 whole entry partner, the tested form may be a part): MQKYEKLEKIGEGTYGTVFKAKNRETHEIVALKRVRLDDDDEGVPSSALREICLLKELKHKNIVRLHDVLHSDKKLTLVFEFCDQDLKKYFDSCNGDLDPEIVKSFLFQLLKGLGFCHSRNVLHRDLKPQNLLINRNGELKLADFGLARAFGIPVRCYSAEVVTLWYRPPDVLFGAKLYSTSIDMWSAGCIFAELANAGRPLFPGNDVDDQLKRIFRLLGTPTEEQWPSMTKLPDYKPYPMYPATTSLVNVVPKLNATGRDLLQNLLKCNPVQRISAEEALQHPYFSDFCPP
T1 sequence (Q15078 2-307 partner): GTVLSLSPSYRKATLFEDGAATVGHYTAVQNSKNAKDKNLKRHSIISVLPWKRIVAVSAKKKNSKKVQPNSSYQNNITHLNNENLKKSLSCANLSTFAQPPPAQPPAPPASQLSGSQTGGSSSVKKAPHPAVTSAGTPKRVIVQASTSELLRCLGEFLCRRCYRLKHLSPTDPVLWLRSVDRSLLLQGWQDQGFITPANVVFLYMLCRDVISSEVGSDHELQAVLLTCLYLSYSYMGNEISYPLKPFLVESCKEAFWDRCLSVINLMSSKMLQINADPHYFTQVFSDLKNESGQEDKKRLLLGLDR

| IC50 [2] [µM] | Compound | IC50 [1] [µM] |
| --- | --- | --- |
| – | COc1ccc(Cl)cc1C(=O)NCCc1ccc(S(=O)(=O)NC(=O)NC2CCCCC2)cc1 [glibenclamide] | 0.025 |
| 0.378 | CCC1=C(C)CN(C(=O)NCCc2ccc(S(=O)(=O)NC(=O)N[C@H]3CC[C@H](C)CC3)cc2)C1=O [glimepiride] | – |
